Test results reported in US20230121689A1, “CEPHALOSPORIN ANTIBACTERIAL COMPOUND AND PHARMACEUTICAL APPLICATION THEREOF” (priority 2020, published 2023).
In brackets after ≈: the same amount, converted by molar mass. Where two headings read alike, the source gives them in different places.

Key:
Assay type in all cases: cell-based
[1] = system: Carbapenem-resistant Acinetobacter baumannii (CRAB, Acinetobacter baumannii); assay: Test Example 2: antibacterial activity test (MIC)
Method: (§1) 1. The test compounds were dissolved in sterile normal saline, vortexed for uniformly mixing, and diluted in a 2-fold dilution with the sterile normal saline (11 concentration points in total). The test concentration range was 32-0.031 μg/mL, and two duplicate wells were set for each concentration. Additional wells without drug dosing were set as growth controls. 2. 4 μL of the diluent was added to 196 μL of the bacterial suspension in a 96-well plate (the bacterial count in the bacterial suspension was 2-8×10^5 colony forming units/mL). 3.
(§2) The minimum inhibitory concentration (MIC) assay was performed with reference to the Clinical and Laboratory Standards Institute (CLSI) guidelines.

[2] = system: Carbapenem-resistant Enterobacteriaceae (CRE, Klebsiella pneumoniae); assay: Test Example 2: antibacterial activity test (MIC)
Method: as §1, §2

[3] = system: Carbapenem-resistant Pseudomonas aeruginosa (CRPA, Pseudomonas aeruginosa); assay: Test Example 2: antibacterial activity test (MIC)
Method: as §1, §2

[4] = system: Control Strain Pseudomonas aeruginosa ATCC 27853; assay: Test Example 2: antibacterial activity test (MIC)
Method: as §1, §2

[5] = system: Control strain Escherichia coli ATCC 25922; assay: Test Example 2: antibacterial activity test (MIC)
Method: as §1, §2

[6] = system: Carbapenem-resistant Acinetobacter baumannii (CRAB); assay: Test Example 1: antibacterial activity test (MIC)
Method: (§3) The test compounds were diluted in a gradient and used for an MIC assay on the test strains. The test compounds at an initial assay concentration of 32 μg/mL were diluted in a 2-fold gradient (11 concentration points in total), and two duplicate wells were set for each concentration. Additional wells without drug dosing were set as growth controls. The minimum inhibitory concentration (MIC) assay was performed with reference to the Clinical and Laboratory Standards Institute (CLSI) guidelines.
(§4) After the frozen strains were subcultured, a single colony was picked and re-suspended in normal saline or sterile water in a tube. The bacterial suspension was vortexed and adjusted to 0.5 McF using a spectrophotometer at the wavelength of 530 nm. The bacterial solution was taken by a pipette, added to a culture medium, diluted and mixed well, and seeded to a bacterial assay plate.
(§5) The 96-well plate was affixed with a disposable sealing film, shaken and mixed well, and visually observed using a plate reader. The minimum concentration of the compounds capable of inhibiting the growth of bacteria was defined as MIC as compared to the growth controls.

[7] = system: Carbapenem-resistant Enterobacteriaceae (CRE); assay: Test Example 1: antibacterial activity test (MIC)
Method: as §3, §4, §5

[8] = system: Carbapenem-resistant Pseudomonas aeruginosa (CRPA); assay: Test Example 1: antibacterial activity test (MIC)
Method: as §3, §4, §5

C[C@H](CN(CCCNC(=O)c1ccc(O)c(O)c1Cl)C(=O)c1ccc(O)c(O)c1Cl)[N+]1(CC2=C(C(=O)O)N3C(=O)[C@@H](NC(=O)/C(=N\OC(C)(C)C(=O)O)c4csc(N)n4)[C@H]3SC2)CCCC1 [Compound 11]
MIC ([1]; read-out: ID-CAMHB, MIC, ID-CAMHB, FDA-CDC AR-BANK #0036 (strB, OXA-65, OXA-24, strA, sul2)): 0.5 µg/mL
MIC ([1]; read-out: ID-CAMHB, MIC, ID-CAMHB, FDA-CDC AR-BANK #0052 (OXA-58, OXA-100, sul2)): 0.125 µg/mL
MIC ([1]; read-out: ID-CAMHB, MIC, ID-CAMHB, FDA-CDC AR-BANK #0063 (OXA-23, OXA-65, OXA-24, sul2)): 4 µg/mL
MIC ([1]; read-out: ID-CAMHB, MIC, ID-CAMHB, FDA-CDC AR-BANK #0070 (OXA-58, OXA-100, sul2)): 0.25 µg/mL
MIC ([1]; read-out: ID-CAMHB, MIC, ID-CAMHB, FDA-CDC AR-BANK #0101 (strB, OXA-65, OXA-24, strA, sul2)): 1 µg/mL
MIC ([2]; read-out: ID-CAMHB, MIC, ID-CAMHB, FDA-CDC AR-BANK #0361 (TEM-1; SHV-12; KPC-2)): 1 µg/mL
MIC ([2]; read-out: ID-CAMHB, MIC, ID-CAMHB, FDA-CDC AR-BANK #0362 (TEM-1; SHV-11; KPC-2)): 0.25 µg/mL
MIC ([2]; read-out: ID-CAMHB, MIC, ID-CAMHB, FDA-CDC AR-BANK #0363 (TEM-1; SHV-12; KPC-2)): 0.5 µg/mL
MIC ([2]; read-out: ID-CAMHB, MIC, ID-CAMHB, FDA-CDC AR-BANK #0438 (aph(3′)-Ia, dfrA12, KPC-3, OmpK35, oqxA, oqxB, SHV-11)): 1 µg/mL
MIC ([2]; read-out: ID-CAMHB, MIC, ID-CAMHB, FDA-CDC AR-BANK #0453 (KPC-3, OmpK35, oqxA, oqxB, SHV-11, TEM-1B)): 1 µg/mL
MIC ([3]; read-out: ID-CAMHB, MIC, ID-CAMHB, FDA-CDC AR-BANK #0439 (aac(6′)-Il, aadA1b, BCR1, IMP-18, OXA-50)): 0.5 µg/mL
MIC ([3]; read-out: ID-CAMHB, MIC, ID-CAMHB, FDA-CDC AR-BANK #0441 (KPC-2)): 8 µg/mL
MIC ([3]; read-out: ID-CAMHB, MIC, ID-CAMHB, FDA-CDC AR-BANK #0444 (aac(6′)-Il, dfrB5, OXA-4, tet(G), VIM-2)): 4 µg/mL
MIC ([3]; read-out: ID-CAMHB, MIC, ID-CAMHB, FDA-CDC AR-BANK #0457 (aadA6, VIM-2)): 0.25 µg/mL
MIC ([4]; ATCC27853, read-out: ID-CAMHB, MIC): 0.0625 µg/mL
MIC ([5]; ATCC25922, read-out: ID-CAMHB, MIC): 0.125 µg/mL

C[C@@H](O)[C@H]1C(=O)N2C(C(=O)O)=C(S[C@@H]3CN[C@H](C(=O)N(C)C)C3)[C@H](C)[C@H]12 [Meropenem, reference compound]
MIC ([6]; CRAB strain No. 100085): 32 µg/mL (≈ 83.4 µM)
MIC ([6]; CRAB strain No. 100333): > 32 µg/mL
MIC ([6]; CRAB strain No. 110440): 32 µg/mL (≈ 83.4 µM)
MIC ([6]; CRAB strain No. 110477): > 32 µg/mL
MIC ([6]; CRAB strain No. 110517): 32 µg/mL (≈ 83.4 µM)
MIC ([7]; CRE strain No. 100109): > 32 µg/mL
MIC ([7]; CRE strain No. 100186): > 32 µg/mL
MIC ([7]; CRE strain No. 110502): 32 µg/mL (≈ 83.4 µM)
MIC ([7]; CRE strain No. 110525): 32 µg/mL (≈ 83.4 µM)
MIC ([7]; CRE strain No. 311277): 32 µg/mL (≈ 83.4 µM)
MIC ([8]; CRPA strain No. 100110): 32 µg/mL (≈ 83.4 µM)
MIC ([8]; CRPA strain No. 110163): 24 µg/mL (≈ 62.6 µM)
MIC ([8]; CRPA strain No. 110224): 16 µg/mL (≈ 41.7 µM)
MIC ([8]; CRPA strain No. 110358): 4 µg/mL (≈ 10.4 µM)
MIC ([8]; CRPA strain No. 110390): 12 µg/mL (≈ 31.3 µM)
MIC ([1]; CAMHB, FDA-CDC AR-BANK #0036, read-out: CAMHB MIC): > 32 µg/mL
MIC ([1]; CAMHB, FDA-CDC AR-BANK #0052, read-out: CAMHB MIC): 16 µg/mL (≈ 41.7 µM)
MIC ([1]; CAMHB, FDA-CDC AR-BANK #0063, read-out: CAMHB MIC): > 32 µg/mL
MIC ([1]; CAMHB, FDA-CDC AR-BANK #0070, read-out: CAMHB MIC): 8 µg/mL (≈ 20.9 µM)
MIC ([1]; CAMHB, FDA-CDC AR-BANK #0101, read-out: CAMHB MIC): > 32 µg/mL
MIC ([2]; read-out: CAMHB MIC, CAMHB, FDA-CDC AR-BANK #0361): 16 µg/mL (≈ 41.7 µM)
MIC ([2]; read-out: CAMHB MIC, CAMHB, FDA-CDC AR-BANK #0362): > 32 µg/mL
MIC ([2]; read-out: CAMHB MIC, CAMHB, FDA-CDC AR-BANK #0363): 32 µg/mL (≈ 83.4 µM)
MIC ([2]; read-out: CAMHB MIC, CAMHB, FDA-CDC AR-BANK #0438): > 32 µg/mL
MIC ([2]; read-out: CAMHB MIC, CAMHB, FDA-CDC AR-BANK #0453): > 32 µg/mL
MIC ([3]; CAMHB, FDA-CDC AR-BANK #0439, read-out: CAMHB MIC): > 32 µg/mL
MIC ([3]; CAMHB, FDA-CDC AR-BANK #0441, read-out: CAMHB MIC): > 32 µg/mL
MIC ([3]; CAMHB, FDA-CDC AR-BANK #0444, read-out: CAMHB MIC): > 32 µg/mL
MIC ([3]; CAMHB, FDA-CDC AR-BANK #0457, read-out: CAMHB MIC): > 32 µg/mL
MIC ([4]; ATCC27853, CAMHB, ATCC 27853, read-out: CAMHB MIC): 0.5 µg/mL (≈ 1.3 µM)
MIC ([5]; ATCC25922, CAMHB, ATCC 25922, read-out: CAMHB MIC): ≤ 0.0312 µg/mL
